What follows are compounds tested against T1, CXCR3 (Homo sapiens, UniProt P49682) (assay: CXCR3/IP-10 radioligand binding (125I-IP-10 competition, CXCR3.L1/2 cell membranes)). Settings: Table 6; test compound 10 μmol/L; 125I-labeled IP-10 binding to CXCR3.L1/2 transfectant cell membrane.
T1 construct: expressed in transfected cells
T1 sequence (P49682 1-368): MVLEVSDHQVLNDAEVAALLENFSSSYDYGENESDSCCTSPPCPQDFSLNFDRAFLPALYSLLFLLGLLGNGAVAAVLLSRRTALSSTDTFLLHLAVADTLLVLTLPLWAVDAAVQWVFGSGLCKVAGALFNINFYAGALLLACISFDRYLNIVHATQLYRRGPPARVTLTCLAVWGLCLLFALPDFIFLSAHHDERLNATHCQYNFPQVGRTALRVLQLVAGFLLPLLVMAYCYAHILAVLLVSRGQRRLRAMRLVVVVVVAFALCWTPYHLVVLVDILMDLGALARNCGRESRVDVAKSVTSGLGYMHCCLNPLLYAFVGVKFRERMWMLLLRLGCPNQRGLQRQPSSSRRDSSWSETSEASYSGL
Text: The activity of the compounds of the present invention can be assessed using a suitable assay, such as a receptor binding assay, a chemotaxis assays, an extracellular acidification assay or a calcium flux assay (see, for example, Hesselgesser et al., J. Biol. Chem. 273(25):15687-15692 (1998) and WO 98/02151). For example, as described herein, small organic molecule antagonists of CXCR3/IP-10 binding have been identified utilizing cells engineered to express recombinant human CXCR3 (CXCR3.L1/2) and which bind ^125I-IP-10 and chemotax in response to IP-10, Mig or I-TAC. Specifically, a high through-put receptor binding assay, which monitors ^125I-IP-10 binding to CXCR3.L1/2 cell membranes, was used to identify small molecule antagonists which block binding of IP-10, Mig or I-TAC to CXCR3.
CXCR3.L1/2 cells were pelleted by centrifugation and stored at −80° C. The cells were lysed by thawing and resuspending at about 1.5×10^7 cells/ml in a hypotonic buffer (5 m mol/L HEPES (pH 7.2), 2 mmol/L EDTA, 10 μg/ml each leupeptin, aprotinin, and chymostatin, and 100 μg/ml PMSF (all from Sigma, St. Louis)). Nuclei and cellular debris was removed by centrifugation ([…], at 4° C.) for 10 min. The supematant was transferred to chilled centrifuge tubes (Nalge, Rochester, N.Y.) and the membrane fraction was recovered by centrifugation (25,000 g at 4° C.) for 45 min. The membrane pellet was resuspended in freezing buffer (10 mM HEPES (pH 7.2), 300 mmol/L Sucrose, 5 μg/ml each of leupeptin, aprotinin, and chymostatin, and 10 μg/ml PMSF). The total protein concentration was determined using a coomassie blue staining protein concentration assay kit (BioRad). The membrane preparation was aliquoted and stored at −80° C. until time of use.
CXCR3/IP-10 binding was performed in 96-well polypropylene plates (Costar) in a final volume of 0.1 ml of HBB buffer (50 mmol/L Hepes pH 7.4, 1 mmol/L CaCl2, 5 mmol/L MgCl2, 0.02% sodium azide, 0.5% BSA (bovine serum albumin)) containing 1 to 5 μg of CXCR3.L1/2 transfectant cell membrane protein and 0.05 to 0.2 nmol/L ^125I-labeled IP-10 (NEN, Boston, Mass.). Competition binding experiments were performed by including variable concentrations of unlabeled IP-10 or test compound. Nonspecific binding was determined following the addition of a 250 nmol/L unlabelled IP-10. Samples were incubated for 60 min at room temperature, and bound and free tracer (^125I-IP10) were separated by filtration through 96-well GF/B filterplates (Packard) presoaked in 0.3% polyethyleneimine. The filters were washed in HBB further supplemented with 0.5 mol/L NaCl, dried, and the amount of bound radioactivity determined by liquid scintillation counting. The competition is presented as the percent specific binding as calculated by 100×[(S-B)/(T-B)], where S is the radioactivity bound for each sample, B is background binding, and T is total bound in the absence of competitors. Duplicates were used throughout the experiments.

Row | inhibition at 10 µM | SMILES
1 | 99% | CCN(CCN1CCN(C(=O)c2cc(C)cc(C)c2)C1=C(C#N)C#N)Cc1ccc(CN2CCCCC2)cc1 [Compound 25, 1-[2-{N-Ethyl-N-(4-(1-piperidinomethyl)benzyl)amino}ethyl]-3-(3,5-dimethylbenzoyl)-2-imidazolidinylidenepropanedinitrile]
2 | 64% | CCN(CCN1CCN(Cc2cc(C)cc(C)c2)C1=C(C#N)C#N)C(=O)c1ccc(CN2CCCCC2)cc1 [Compound 26, 1-[2-{N-Ethyl-N-(4-(1-piperidinomethyl)benzoyl)amino}ethyl]-3-(3,5-dimethylbenzyl)-2-imidazolidinylidenepropanedinitrile]
3 | 72% | CCN(CCN1CCN(Cc2cccc3ccccc23)C1=C(C#N)C#N)C(=O)c1ccc(CN2CCCCC2)cc1 [Compound 27, 1-[2-{N-Ethyl-N-(4-(1-piperidinomethyl)benzoyl)amino}ethyl]-3-(1-naphthylmethyl)-2-imidazolidinylidenepropanedinitrile]
4 | 41% | CCN(CCN1CCN(Cc2cc(Cl)cc(Cl)c2)C1=C(C#N)C#N)C(=O)c1ccc(CN2CCCCC2)cc1 [Compound 28, 1-[2-{N-Ethyl-N-(4-(1-piperidinomethyl)benzoyl)amino}ethyl]-3-(3,5-dichlorobenzyl)-2-imidazolidinylidenepropanedinitrile]
5 | 51% | CCCNCc1ccc(C(=O)N(CC)CCN2CCN(Cc3cc(C)cc(C)c3)C2=C(C#N)C#N)cc1 [Compound 29, 1-[2-{N-Ethyl-N-(4-(-1-propylaminomethyl)benzoyl)amino}ethyl]-3-(3,5-dimethylbenzyl)-2-imidazolidinylidenepropanedinitrile]
6 | 73% | CCCNCc1ccc(C(=O)N(CC)CCN2CCN(Cc3cc(Cl)cc(Cl)c3)C2=C(C#N)C#N)cc1 [Compound 30, 1-[2-{N-Ethyl-N-(4-(1-propylaminomethyl)benzoyl)amino}ethyl]-3-(3,5-dichlorobenzyl)-2-imidazolidinylidenepropanedinitrile]

Source: patent US6469002B1, “Imidazolidine compounds” (Millennium Pharmaceuticals, Inc., priority 2001, dated 2002)
